Results: ChEMBL document CHEMBL1145498, “A systematic interaction map of validated kinase inhibitors with Ser/Thr kinases” (Proc Natl Acad Sci U S A, 2007)

Molecular target: T1, Calcium/calmodulin-dependent protein kinase type IV (Homo sapiens) (UniProt Q16566)
T1 sequence (whole entry): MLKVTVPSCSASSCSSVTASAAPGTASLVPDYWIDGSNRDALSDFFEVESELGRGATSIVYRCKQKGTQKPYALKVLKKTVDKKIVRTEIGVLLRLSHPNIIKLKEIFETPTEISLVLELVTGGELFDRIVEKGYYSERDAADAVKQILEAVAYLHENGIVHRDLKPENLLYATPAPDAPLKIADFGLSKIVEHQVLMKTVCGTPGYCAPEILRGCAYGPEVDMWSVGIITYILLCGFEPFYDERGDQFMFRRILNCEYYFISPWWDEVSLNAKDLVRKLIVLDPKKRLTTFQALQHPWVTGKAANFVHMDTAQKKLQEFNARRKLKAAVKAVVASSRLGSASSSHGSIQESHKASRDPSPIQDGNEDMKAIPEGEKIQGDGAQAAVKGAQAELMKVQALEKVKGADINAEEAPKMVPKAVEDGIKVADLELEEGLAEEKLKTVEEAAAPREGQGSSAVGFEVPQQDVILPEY

Structure (SMILES) | ΔTm
C/C(O)=C(\C#N)C(=O)Nc1cc(Br)ccc1Br | 0.1 °C
COc1cc(/C=C/C(=O)CC(=O)/C=C/c2ccc(O)c(OC)c2)ccc1O [CURCUMIN] | 2.1 °C
O=c1c(O)c(-c2ccc(O)c(O)c2)oc2cc(O)cc(O)c12 [QUERCETIN] | 6.7 °C
CCOC(=O)c1c(C)[nH]c(/C=C2\C(=O)Nc3ccccc32)c1C | -0.4 °C
O=C1c2ccccc2-[n+]2ccc3c([nH]c4ccccc43)c21 [FASCAPLYSIN CHLORIDE] | 0.7 °C
O=C1NC(=O)c2c1c1c3ccccc3n3c1c1c2c2ccccc2n1C1CCC3O1 | -0.2 °C
CCOC(=O)c1cnc2oc3ccc(O)cc3c2c1-c1ccccc1 | 0.8 °C

Molecular target: Cyclin-dependent kinase 2 (Homo sapiens, UniProt P24941)

Structure (SMILES) | ΔTm
C/C(O)=C(\C#N)C(=O)Nc1cc(Br)ccc1Br | 1 °C
COc1cc(/C=C/C(=O)CC(=O)/C=C/c2ccc(O)c(OC)c2)ccc1O [CURCUMIN] | 1.9 °C
O=c1c(O)c(-c2ccc(O)c(O)c2)oc2cc(O)cc(O)c12 [QUERCETIN] | 5.3 °C
CCOC(=O)c1c(C)[nH]c(/C=C2\C(=O)Nc3ccccc32)c1C | -3.4 °C
O=C1c2ccccc2-[n+]2ccc3c([nH]c4ccccc43)c21 [FASCAPLYSIN CHLORIDE] | 0 °C
O=C1NC(=O)c2c1c1c3ccccc3n3c1c1c2c2ccccc2n1C1CCC3O1 | 0.2 °C
CCOC(=O)c1cnc2oc3ccc(O)cc3c2c1-c1ccccc1 | 1 °C

Molecular target: Casein kinase I isoform gamma-2 (Homo sapiens) (UniProt P78368)
Sequence (P78368 whole entry, looked up, canonical isoform): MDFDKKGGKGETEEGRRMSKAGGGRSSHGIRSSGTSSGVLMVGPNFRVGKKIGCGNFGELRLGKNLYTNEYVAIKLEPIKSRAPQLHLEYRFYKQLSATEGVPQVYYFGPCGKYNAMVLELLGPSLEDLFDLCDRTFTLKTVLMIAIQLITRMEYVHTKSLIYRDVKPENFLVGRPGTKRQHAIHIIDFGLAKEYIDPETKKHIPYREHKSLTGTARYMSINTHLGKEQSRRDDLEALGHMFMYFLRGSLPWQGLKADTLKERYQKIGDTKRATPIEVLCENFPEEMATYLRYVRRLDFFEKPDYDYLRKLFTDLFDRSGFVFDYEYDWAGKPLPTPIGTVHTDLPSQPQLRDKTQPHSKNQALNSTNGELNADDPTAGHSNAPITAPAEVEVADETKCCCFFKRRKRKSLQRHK

Structure (SMILES) | ΔTm
C/C(O)=C(\C#N)C(=O)Nc1cc(Br)ccc1Br | 0.4 °C
COc1cc(/C=C/C(=O)CC(=O)/C=C/c2ccc(O)c(OC)c2)ccc1O [CURCUMIN] | 2.3 °C
O=c1c(O)c(-c2ccc(O)c(O)c2)oc2cc(O)cc(O)c12 [QUERCETIN] | 2.4 °C
CCOC(=O)c1c(C)[nH]c(/C=C2\C(=O)Nc3ccccc32)c1C | 0.4 °C
O=C1c2ccccc2-[n+]2ccc3c([nH]c4ccccc43)c21 [FASCAPLYSIN CHLORIDE] | -0.3 °C
O=C1NC(=O)c2c1c1c3ccccc3n3c1c1c2c2ccccc2n1C1CCC3O1 | 0.7 °C
CCOC(=O)c1cnc2oc3ccc(O)cc3c2c1-c1ccccc1 | 1.1 °C

Molecular target: Serine/threonine-protein kinase PAK 4 (Homo sapiens) (UniProt O96013)
Sequence (O96013 whole entry, looked up): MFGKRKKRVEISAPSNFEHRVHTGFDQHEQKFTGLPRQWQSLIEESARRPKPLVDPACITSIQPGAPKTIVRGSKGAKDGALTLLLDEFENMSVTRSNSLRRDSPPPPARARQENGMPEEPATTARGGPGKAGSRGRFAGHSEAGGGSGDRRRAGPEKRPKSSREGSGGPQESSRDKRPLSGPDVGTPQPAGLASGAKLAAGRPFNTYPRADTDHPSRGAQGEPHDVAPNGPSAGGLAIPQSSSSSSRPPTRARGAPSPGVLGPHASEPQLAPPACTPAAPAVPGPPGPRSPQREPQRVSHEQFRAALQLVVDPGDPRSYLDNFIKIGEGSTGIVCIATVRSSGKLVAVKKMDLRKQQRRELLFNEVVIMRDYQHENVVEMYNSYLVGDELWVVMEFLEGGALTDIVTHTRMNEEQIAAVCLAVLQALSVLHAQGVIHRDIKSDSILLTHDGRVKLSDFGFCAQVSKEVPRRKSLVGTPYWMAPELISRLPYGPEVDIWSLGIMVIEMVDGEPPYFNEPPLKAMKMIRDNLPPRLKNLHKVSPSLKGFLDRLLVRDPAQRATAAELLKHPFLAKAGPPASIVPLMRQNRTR

Structure (SMILES) | ΔTm
C/C(O)=C(\C#N)C(=O)Nc1cc(Br)ccc1Br | -0.3 °C
COc1cc(/C=C/C(=O)CC(=O)/C=C/c2ccc(O)c(OC)c2)ccc1O [CURCUMIN] | 3 °C
O=c1c(O)c(-c2ccc(O)c(O)c2)oc2cc(O)cc(O)c12 [QUERCETIN] | 2.3 °C
CCOC(=O)c1c(C)[nH]c(/C=C2\C(=O)Nc3ccccc32)c1C | 0.9 °C
O=C1c2ccccc2-[n+]2ccc3c([nH]c4ccccc43)c21 [FASCAPLYSIN CHLORIDE] | -0.6 °C
O=C1NC(=O)c2c1c1c3ccccc3n3c1c1c2c2ccccc2n1C1CCC3O1 | 2.8 °C
CCOC(=O)c1cnc2oc3ccc(O)cc3c2c1-c1ccccc1 | 0.7 °C

Molecular target: Serine/threonine-protein kinase pim-3 (Homo sapiens) (UniProt Q86V86)

Structure (SMILES) | ΔTm
C/C(O)=C(\C#N)C(=O)Nc1cc(Br)ccc1Br | 3.8 °C
COc1cc(/C=C/C(=O)CC(=O)/C=C/c2ccc(O)c(OC)c2)ccc1O [CURCUMIN] | 6.9 °C
O=c1c(O)c(-c2ccc(O)c(O)c2)oc2cc(O)cc(O)c12 [QUERCETIN] | 8.8 °C
CCOC(=O)c1c(C)[nH]c(/C=C2\C(=O)Nc3ccccc32)c1C | 0.3 °C
O=C1c2ccccc2-[n+]2ccc3c([nH]c4ccccc43)c21 [FASCAPLYSIN CHLORIDE] | 0 °C
O=C1NC(=O)c2c1c1c3ccccc3n3c1c1c2c2ccccc2n1C1CCC3O1 | 7.3 °C
CCOC(=O)c1cnc2oc3ccc(O)cc3c2c1-c1ccccc1 | 5.2 °C

Molecular target: Serine/threonine-protein kinase RIO2 (Homo sapiens) (UniProt Q9BVS4)
Sequence (Q9BVS4 whole entry, looked up): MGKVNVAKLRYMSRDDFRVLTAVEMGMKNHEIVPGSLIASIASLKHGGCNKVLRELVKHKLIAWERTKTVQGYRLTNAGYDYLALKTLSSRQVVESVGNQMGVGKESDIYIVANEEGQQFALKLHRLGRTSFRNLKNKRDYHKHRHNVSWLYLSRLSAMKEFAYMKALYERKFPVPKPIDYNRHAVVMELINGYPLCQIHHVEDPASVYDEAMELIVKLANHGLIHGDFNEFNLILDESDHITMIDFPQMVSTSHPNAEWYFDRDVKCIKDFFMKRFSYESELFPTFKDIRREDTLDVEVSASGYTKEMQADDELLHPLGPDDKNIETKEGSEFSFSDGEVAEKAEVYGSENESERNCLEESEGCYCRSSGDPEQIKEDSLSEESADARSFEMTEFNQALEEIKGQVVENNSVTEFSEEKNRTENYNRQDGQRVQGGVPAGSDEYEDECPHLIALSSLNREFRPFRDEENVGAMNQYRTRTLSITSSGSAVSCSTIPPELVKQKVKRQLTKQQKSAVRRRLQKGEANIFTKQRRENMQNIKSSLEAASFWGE

Structure (SMILES) | ΔTm
C/C(O)=C(\C#N)C(=O)Nc1cc(Br)ccc1Br | 1.5 °C
COc1cc(/C=C/C(=O)CC(=O)/C=C/c2ccc(O)c(OC)c2)ccc1O [CURCUMIN] | 2.8 °C
O=c1c(O)c(-c2ccc(O)c(O)c2)oc2cc(O)cc(O)c12 [QUERCETIN] | 4.2 °C
CCOC(=O)c1c(C)[nH]c(/C=C2\C(=O)Nc3ccccc32)c1C | -8.9 °C
O=C1c2ccccc2-[n+]2ccc3c([nH]c4ccccc43)c21 [FASCAPLYSIN CHLORIDE] | -0.9 °C
O=C1NC(=O)c2c1c1c3ccccc3n3c1c1c2c2ccccc2n1C1CCC3O1 | -0.2 °C
CCOC(=O)c1cnc2oc3ccc(O)cc3c2c1-c1ccccc1 | 1.2 °C

Molecular target: Ribosomal protein S6 kinase alpha-3 (Homo sapiens) (UniProt P51812)
Sequence (P51812 whole entry): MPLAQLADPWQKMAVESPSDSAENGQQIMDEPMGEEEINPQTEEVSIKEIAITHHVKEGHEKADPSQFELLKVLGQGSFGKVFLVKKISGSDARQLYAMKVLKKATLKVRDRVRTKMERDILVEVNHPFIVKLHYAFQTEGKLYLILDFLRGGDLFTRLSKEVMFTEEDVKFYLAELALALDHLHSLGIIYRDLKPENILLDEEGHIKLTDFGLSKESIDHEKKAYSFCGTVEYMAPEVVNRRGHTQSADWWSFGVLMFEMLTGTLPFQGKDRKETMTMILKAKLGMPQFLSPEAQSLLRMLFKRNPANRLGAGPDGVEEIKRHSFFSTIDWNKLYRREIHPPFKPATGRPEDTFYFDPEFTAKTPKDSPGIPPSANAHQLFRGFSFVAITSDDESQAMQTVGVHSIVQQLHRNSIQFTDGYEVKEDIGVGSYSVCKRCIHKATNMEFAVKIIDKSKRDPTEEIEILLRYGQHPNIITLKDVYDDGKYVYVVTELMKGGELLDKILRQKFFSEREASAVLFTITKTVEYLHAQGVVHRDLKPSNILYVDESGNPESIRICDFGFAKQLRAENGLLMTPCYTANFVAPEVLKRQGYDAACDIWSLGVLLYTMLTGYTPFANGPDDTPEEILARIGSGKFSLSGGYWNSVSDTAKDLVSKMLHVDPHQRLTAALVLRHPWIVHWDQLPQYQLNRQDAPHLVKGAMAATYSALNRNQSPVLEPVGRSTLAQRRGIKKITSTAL

Structure (SMILES) | ΔTm
C/C(O)=C(\C#N)C(=O)Nc1cc(Br)ccc1Br | 0.6 °C
COc1cc(/C=C/C(=O)CC(=O)/C=C/c2ccc(O)c(OC)c2)ccc1O [CURCUMIN] | 3.4 °C
O=c1c(O)c(-c2ccc(O)c(O)c2)oc2cc(O)cc(O)c12 [QUERCETIN] | 5.6 °C
CCOC(=O)c1c(C)[nH]c(/C=C2\C(=O)Nc3ccccc32)c1C | 3 °C
O=C1c2ccccc2-[n+]2ccc3c([nH]c4ccccc43)c21 [FASCAPLYSIN CHLORIDE] | -0.1 °C
O=C1NC(=O)c2c1c1c3ccccc3n3c1c1c2c2ccccc2n1C1CCC3O1 | 0 °C
CCOC(=O)c1cnc2oc3ccc(O)cc3c2c1-c1ccccc1 | 4.4 °C

Molecular target: Serine/threonine-protein kinase 16 (Homo sapiens) (UniProt O75716)
Sequence (O75716 whole entry): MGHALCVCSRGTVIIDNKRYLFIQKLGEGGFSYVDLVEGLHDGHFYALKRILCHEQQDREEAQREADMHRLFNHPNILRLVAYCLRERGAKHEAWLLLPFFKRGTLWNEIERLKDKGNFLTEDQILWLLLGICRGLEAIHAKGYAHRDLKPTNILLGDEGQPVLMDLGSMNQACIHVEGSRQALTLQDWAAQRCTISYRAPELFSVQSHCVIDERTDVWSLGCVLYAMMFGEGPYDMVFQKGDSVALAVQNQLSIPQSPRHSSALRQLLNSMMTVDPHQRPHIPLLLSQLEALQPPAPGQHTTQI

Structure (SMILES) | ΔTm
C/C(O)=C(\C#N)C(=O)Nc1cc(Br)ccc1Br | 0.4 °C
COc1cc(/C=C/C(=O)CC(=O)/C=C/c2ccc(O)c(OC)c2)ccc1O [CURCUMIN] | 0.9 °C
O=c1c(O)c(-c2ccc(O)c(O)c2)oc2cc(O)cc(O)c12 [QUERCETIN] | 4.8 °C
CCOC(=O)c1c(C)[nH]c(/C=C2\C(=O)Nc3ccccc32)c1C | 0.6 °C
O=C1c2ccccc2-[n+]2ccc3c([nH]c4ccccc43)c21 [FASCAPLYSIN CHLORIDE] | -0.1 °C
O=C1NC(=O)c2c1c1c3ccccc3n3c1c1c2c2ccccc2n1C1CCC3O1 | 1.7 °C
CCOC(=O)c1cnc2oc3ccc(O)cc3c2c1-c1ccccc1 | 5.4 °C

Molecular target: T2, Serine/threonine-protein kinase 4 (Homo sapiens) (UniProt Q13043)
T2 sequence (whole entry): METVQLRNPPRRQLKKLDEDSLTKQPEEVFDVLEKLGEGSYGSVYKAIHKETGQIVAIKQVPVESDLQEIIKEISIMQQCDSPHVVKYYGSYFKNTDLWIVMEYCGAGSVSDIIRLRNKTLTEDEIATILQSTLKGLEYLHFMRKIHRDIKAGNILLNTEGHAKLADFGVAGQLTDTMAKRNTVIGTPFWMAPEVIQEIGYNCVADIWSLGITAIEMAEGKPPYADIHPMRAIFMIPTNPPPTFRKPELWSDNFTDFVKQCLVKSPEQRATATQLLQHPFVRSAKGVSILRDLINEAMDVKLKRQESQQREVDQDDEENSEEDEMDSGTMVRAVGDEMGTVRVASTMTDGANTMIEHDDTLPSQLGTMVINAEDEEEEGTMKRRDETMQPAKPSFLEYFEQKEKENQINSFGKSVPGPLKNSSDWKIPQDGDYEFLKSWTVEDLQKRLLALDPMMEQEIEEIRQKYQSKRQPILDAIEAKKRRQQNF

Structure (SMILES) | ΔTm
C/C(O)=C(\C#N)C(=O)Nc1cc(Br)ccc1Br | 0.2 °C
COc1cc(/C=C/C(=O)CC(=O)/C=C/c2ccc(O)c(OC)c2)ccc1O [CURCUMIN] | 5.5 °C
O=c1c(O)c(-c2ccc(O)c(O)c2)oc2cc(O)cc(O)c12 [QUERCETIN] | 5.4 °C
CCOC(=O)c1c(C)[nH]c(/C=C2\C(=O)Nc3ccccc32)c1C | 3 °C
O=C1c2ccccc2-[n+]2ccc3c([nH]c4ccccc43)c21 [FASCAPLYSIN CHLORIDE] | -1.6 °C
O=C1NC(=O)c2c1c1c3ccccc3n3c1c1c2c2ccccc2n1C1CCC3O1 | 4.7 °C
CCOC(=O)c1cnc2oc3ccc(O)cc3c2c1-c1ccccc1 | 3.4 °C

Molecular target: T3, Lymphokine-activated killer T-cell-originated protein kinase (Homo sapiens) (UniProt Q96KB5)
T3 sequence (whole entry): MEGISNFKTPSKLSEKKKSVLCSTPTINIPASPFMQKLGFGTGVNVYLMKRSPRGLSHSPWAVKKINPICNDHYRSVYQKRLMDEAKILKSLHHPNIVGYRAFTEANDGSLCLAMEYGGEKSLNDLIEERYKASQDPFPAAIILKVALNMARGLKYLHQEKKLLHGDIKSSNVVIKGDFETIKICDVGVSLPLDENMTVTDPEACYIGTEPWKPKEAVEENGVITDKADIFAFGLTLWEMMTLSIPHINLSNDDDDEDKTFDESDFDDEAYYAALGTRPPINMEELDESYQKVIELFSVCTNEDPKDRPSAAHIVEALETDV

Structure (SMILES) | ΔTm
C/C(O)=C(\C#N)C(=O)Nc1cc(Br)ccc1Br | 0.8 °C
COc1cc(/C=C/C(=O)CC(=O)/C=C/c2ccc(O)c(OC)c2)ccc1O [CURCUMIN] | 0.7 °C
O=c1c(O)c(-c2ccc(O)c(O)c2)oc2cc(O)cc(O)c12 [QUERCETIN] | 0.4 °C
CCOC(=O)c1c(C)[nH]c(/C=C2\C(=O)Nc3ccccc32)c1C | 0.3 °C
O=C1c2ccccc2-[n+]2ccc3c([nH]c4ccccc43)c21 [FASCAPLYSIN CHLORIDE] | 0.6 °C
O=C1NC(=O)c2c1c1c3ccccc3n3c1c1c2c2ccccc2n1C1CCC3O1 | -0.3 °C
CCOC(=O)c1cnc2oc3ccc(O)cc3c2c1-c1ccccc1 | -0.2 °C

Molecular target: Serine/threonine-protein kinase VRK2 (Homo sapiens) (UniProt Q86Y07)
Sequence (Q86Y07 whole entry): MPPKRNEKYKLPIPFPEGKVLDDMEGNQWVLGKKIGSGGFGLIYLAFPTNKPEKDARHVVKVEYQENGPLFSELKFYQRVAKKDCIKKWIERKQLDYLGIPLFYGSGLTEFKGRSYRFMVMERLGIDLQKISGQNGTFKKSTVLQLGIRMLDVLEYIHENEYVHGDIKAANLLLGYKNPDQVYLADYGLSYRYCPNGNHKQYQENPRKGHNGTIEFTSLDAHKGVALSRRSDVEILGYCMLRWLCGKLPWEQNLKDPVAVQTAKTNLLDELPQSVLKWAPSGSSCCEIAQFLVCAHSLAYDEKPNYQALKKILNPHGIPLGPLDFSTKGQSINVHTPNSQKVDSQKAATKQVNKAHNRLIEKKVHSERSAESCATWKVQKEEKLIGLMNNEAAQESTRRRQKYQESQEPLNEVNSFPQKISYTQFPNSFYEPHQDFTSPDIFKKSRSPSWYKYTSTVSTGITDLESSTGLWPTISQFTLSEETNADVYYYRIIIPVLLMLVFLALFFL

Structure (SMILES) | ΔTm
C/C(O)=C(\C#N)C(=O)Nc1cc(Br)ccc1Br | 0.1 °C
COc1cc(/C=C/C(=O)CC(=O)/C=C/c2ccc(O)c(OC)c2)ccc1O [CURCUMIN] | 1.4 °C
O=c1c(O)c(-c2ccc(O)c(O)c2)oc2cc(O)cc(O)c12 [QUERCETIN] | 2.7 °C
CCOC(=O)c1c(C)[nH]c(/C=C2\C(=O)Nc3ccccc32)c1C | 0.2 °C
O=C1c2ccccc2-[n+]2ccc3c([nH]c4ccccc43)c21 [FASCAPLYSIN CHLORIDE] | -0.8 °C
O=C1NC(=O)c2c1c1c3ccccc3n3c1c1c2c2ccccc2n1C1CCC3O1 | 0.1 °C
CCOC(=O)c1cnc2oc3ccc(O)cc3c2c1-c1ccccc1 | 0.3 °C
